Reference: the NIST ThermoML archive (doi:10.1016/j.fluid.2008.03.004)
Numbers after ± are expanded uncertainties.

Assay: xn = mol fraction of the nth substance listed
Conditions: 101 kPa, Liquid; for speed of sound: Sing-around technique in a fixed-path interferometer

COC(C)(C)C [2-methoxy-2-methylpropane] + Cc1ccc(C)cc1
Conditions	mass density, 288.15 K [kg/m3]	mass density, 290.65 K [kg/m3]	mass density, 293.15 K [kg/m3]	mass density, 295.65 K [kg/m3]	speed of sound, 288.15 K [m/s]	speed of sound, 290.65 K [m/s]	speed of sound, 293.15 K [m/s]	speed of sound, 295.65 K [m/s]
x1 = 0.051	859.904 ± 0.4	857.719 ± 0.4	855.534 ± 0.4	853.348 ± 0.41	1337.8 ± 2.2	1327.2 ± 2.2	1316.8 ± 2.2	1306.5 ± 2.2
x1 = 0.111	853.391 ± 0.41	851.187 ± 0.41	848.983 ± 0.41	846.775 ± 0.42	1325 ± 2.2	1314.2 ± 2.2	1303.7 ± 2.2	1293.1 ± 2.2
x1 = 0.199	843.55 ± 0.42	841.317 ± 0.42	839.08 ± 0.43	836.841 ± 0.43	1302.9 ± 2.2	1292.2 ± 2.2	1281.6 ± 2.2	1271 ± 2.2
x1 = 0.297	832.629 ± 0.44	830.36 ± 0.44	828.088 ± 0.44	825.813 ± 0.45	1278.6 ± 2.2	1267.7 ± 2.2	1257 ± 2.2	1246.2 ± 2.2
x1 = 0.394	821.398 ± 0.45	819.092 ± 0.46	816.783 ± 0.46	814.47 ± 0.46	1253 ± 2.2	1242 ± 2.2	1231.1 ± 2.2	1220.2 ± 2.2
x1 = 0.5	808.782 ± 0.47	806.435 ± 0.48	804.082 ± 0.48	801.723 ± 0.48	1223.9 ± 2.2	1212.8 ± 2.2	1201.9 ± 2.2	1191 ± 2.2
x1 = 0.591	797.744 ± 0.49	795.358 ± 0.49	792.963 ± 0.5	–	1199.5 ± 2.2	1188.4 ± 2.2	1177.3 ± 2.2	1166.2 ± 2.2
x1 = 0.7	784.294 ± 0.51	781.856 ± 0.51	779.412 ± 0.52	–	1169.8 ± 2.2	1158.4 ± 2.2	1147.2 ± 2.2	1135.9 ± 2.2
x1 = 0.799	771.481 ± 0.53	768.993 ± 0.53	766.5 ± 0.54	–	1140.7 ± 2.2	1129.2 ± 2.2	1117.9 ± 2.2	1106.6 ± 2.2
x1 = 0.898	758.534 ± 0.55	755.997 ± 0.55	753.452 ± 0.56	–	1112.1 ± 2.2	1100.5 ± 2.2	1089 ± 2.2	1077.5 ± 2.2
x1 = 0.949	751.828 ± 0.56	749.262 ± 0.56	746.689 ± 0.57	–	1096.4 ± 2.2	1084.7 ± 2.2	1073.2 ± 2.2	1061.7 ± 2.2
x1 = 1	744.861 ± 0.55	742.259 ± 0.56	739.654 ± 0.56	–	1083.4 ± 2.2	1071.6 ± 2.2	1060 ± 2.2	1048.5 ± 2.2
